Source: patent publication US11634702B2, “Cell signaling pathway activation by local AC electric field” (ARIZONA BOARD OF REGENTS ON BEHALF OF ARIZONA STATE …, priority 2018, dated 2023)

System: EGFR-Ras-ERK signaling pathway in MCF10A cells
Assay: ERK activation by AC EF stimulation (ERKTR reporter) in blocker tests
Format: cell-based

For CC(=O)OCOC(=O)CN(CC(=O)OCOC(C)=O)c1ccccc1OCCOc1ccccc1N(CC(=O)OCOC(C)=O)CC(=O)OCOC(C)=O [BAPTA AM], the “effect on ERK activation under AC EF stimulation” value (BAPTA AM 3 μM) was “neither Ca2+ chelator (BAPTA AM, 3 μM, Life Technologies), nor ROS quencher (Trolox, 350 μM, Sigma-Aldrich) could block the EF activation of ERK”.

With Cc1c(C)c2c(c(C)c1O)CCC(C)(C(=O)O)O2 (centres unmarked) [Trolox] the “effect on ERK activation under AC EF stimulation” value (Trolox 350 μM) was “neither Ca2+ chelator (BAPTA AM, 3 μM, Life Technologies), nor ROS quencher (Trolox, 350 μM, Sigma-Aldrich) could block the EF activation of ERK”.
